Data on seven compounds can be found in patent US20260308128A1, “BETA-ELEMENE DERIVATIVE CONTAINING PHOTOAFFINITY GROUP DIAZIRINE, AND PREPARATION METHOD AND USE THEREOF AS PHOTOAFFINITY MOLECULAR PROBE” (HANGZHOU NORMAL UNIVERSITY, priority 2022, published 2026).

The test system of assay [1] is A549 human non-small cell lung cancer cells. The experiment in a line: Tumor cell proliferation inhibition (CCK-8), A549. In kind it is cell-based. The note with it: for IC50: Homo sapiens, read-out: IC50 A549; for IC50 times lower than that of β-elemene: human A549 lung cancer cells, versus β-elemene. How it is done: (§1) Human liver cancer cell Huh1, human lung cancer cell A549, and human brain glioma cell U87-MG.
(§2) • (1) A cell laboratory was routinely disinfected and a clean bench was subjected to ultraviolet radiation for more than 30 min. • (2) A culture solution (DMEM) and 0.25% trypsin were preheated in a constant-temperature water bath at 37° C. for 20 min, and dimethyl sulfoxide (DMSO) was refrigerated in a refrigerator at 4° C. for 30 min. • (3) A cryopreserved tube was taken out of a liquid nitrogen storage tank, immediately placed in a 37° C. water bath and shaken rapidly until s cryopreserved liquid was completely thawed. • (4) A cell suspension was transferred into a centrifuge tube, the culture solution was slowly added thereto, and the centrifuge tube was transferred into a centrifuge for centrifugation (120×g, 5 min). • (5) A cell concentration was adjusted with the culture solution, and resulting adjusted cells were shaken well, and placed in a 37° C., 5% CO2 incubator for culture. • (6) After the cells had attached for 24 h, the culture solution thereof was changed. When a cell density reached 80% to 90%, the cells were digested with trypsin and then subcultured.
(§3) • (1) A A549 cell suspension was adjusted to 5×10^4 cells/mL using a DMEM culture medium. […] The cells were cultured in the incubator for 1 h and an absorbance at 450 nm was measured using a THERMO FISHER Multiskan FC microplate reader. • (5) IBM SPSS Statistics 22.0 software was used to plot an S-shaped dose-survival curve using a non-linear regression model, and a survival rate and an inhibition rate were calculated using the following formulas:
(§4) [formula] [formula] • As: absorbance of the experimental well (culture medium containing cells, CCK-8, and the drug to be tested) • Ac: absorbance of the control well (culture medium containing cells, CCK-8, and no drug to be tested) • Ab: absorbance of the blank wells (culture medium without cells and drug to be tested, CCK-8)
(§5) According to the above experimental method, CCK-8 was used to determine the proliferation inhibitory effects of the isolated and purified β-elemene monomer, elemene photoaffinity probe and control compounds on three human cancer cells, namely A549 human non-small cell lung cancer cells, U87-MG human malignant glioma cells, and Huh1 human liver cancer cells.

Assay [2] relates to U87-MG human malignant glioma cells. The experiment in a line: Tumor cell proliferation inhibition (CCK-8), U87-MG. In kind it is cell-based. The note with it: for IC50: Homo sapiens, U-87 MG, 48 h, read-out: IC50 U87; for IC50 times lower than that of β-elemene: human U87-MG malignant glioma cells, versus β-elemene. On the procedure:
as §1, §2, §3, §4, §5

Assay [3] concerns Huh1 human liver cancer cells. Kind of assay: Tumor cell proliferation inhibition (CCK-8), Huh1. It counts as cell-based. Conditions: for IC50: Homo sapiens, read-out: IC50 Huh1; for IC50 times lower than that of β-elemene: human Huh1 liver cancer cells, versus β-elemene. How it is done: as §1, §2, §3, §4, §5
The subject of another assay is Huh1 liver cancer cells. The experiment in a line: Pre-targeted imaging using molecular probe in living cells (365 nm photo-crosslinking, N3-TAMRA click, confocal microscopy). In kind it is cell-based, human. How it is done: In order to determine whether the molecular probe could enter the cell and explore the binding site of the targeted biomacromolecule thereof, the experiment was conducted as follows.
DMEM culture medium, PBS, 4% paraformaldehyde tissue cell fixative, Triton X-100, 5% BSA blocking solution, DAPI staining solution, Cu2SO4, sodium ascorbate, THPTA, N3-TAMRA
• (1) 10^5 Huh1 liver cancer cells were inoculated into glass-bottomed culture dishes and cultured in a 37° C., 5% CO2 incubator until the cells adhered to wall. • (2) DMEM culture medias containing different drug concentrations were added to the culture dishes and incubated overnight in the 37° C., 5% CO2 incubator. • (3) After removing the drug-containing culture mediums, resulting cells were washed with pre-cooled PBS ([…]) for 3 min, placed on ice, and irradiated at 365 nm for 15 min. • (4) Resulting irradiated cells were treated with 1 mL of 4% paraformaldehyde tissue cell fixative for 15 min, the paraformaldehyde tissue cell fixative was removed, and resulting cells were washed with pre-cooled PBS. • (5) Resulting washed cells were permeabilized with 500 μL of 0.1% Triton X-100 in PBS for 10 min, then blocked with 1 mL of 5% BSA blocking solution for 30 min, the blocking solution was removed, and resulting cells were washed with pre-cooled PBS (3×1 mL). • (6) 200 μL of freshly prepared Click reaction solution (20 μM N3-TAMRA, 400 μM Cu2SO4, 400 μM THPTA, 2 mM sodium ascorbate) was added to washed cells obtained in step • (5), incubated under shaking at room temperature for 2 h, the reaction solution was removed, and resulting cells were washed with pre-cooled PBS (3×1 mL) for 3 min. • (7) 200 μL of DAPI staining solution was added to washed cells obtained in step (6) and stained for 6 min, the staining solution was removed, and resulting cells were washed with pre-cooled PBS (3×1 mL) for 3 min, and then imaged with a laser scanning confocal microscope.
According to the above experimental method, the cell images of the β-elemene photoaffinity probe (Compound 2) and a control Compound 6 and β-elemene were measured.

The structures appear in SMILES notation. Like-named read-outs stand apart in the source and are kept apart here.

Usually IC50 stands for the point on the concentration scale where inhibition reaches its midpoint. As for `C#CCCC(=O)NCCOCCOCCC(=O)N[C@H](CCC1(C)N=N1)C(=O)N1CCN(CC(=C)[C@@H]2CC[C@@](C)(C=C)[C@H](C(=C)C)C2)CC1` [Compound 1], the IC50 in assay [1] (A549 cells, 48 h, CCK-8) amounted to 29.3 ± 1.63 µM; in assay [2] (U87-MG cells, CCK-8) it was 38.7 ± 1.91 µM; in assay [3] (HuH-1, Huh1 cells, 48 h, CCK-8) it was 18.7 ± 1.54 µM. The “IC50 times lower than that of β-elemene” value is recorded as “more than 5 times” in assay [1] and “more than 10 times” in assay [3].

Consider `C#CCCC(=O)NCCOCCOCCC(=O)N[C@H](CCC1(C)N=N1)C(=O)NCCN1CCN(CC(=C)[C@@H]2CC[C@@](C)(C=C)[C@H](C(=C)C)C2)CC1` [Compound 2], for which the IC50 is 37.8 ± 3.36 µM in assay [1] (A549 cells, 48 h, CCK-8); 25.5 ± 4.79 µM in assay [2] (U87-MG cells, CCK-8); 20.12 ± 0.16 µM in assay [3] (HuH-1, Huh1 cells, 48 h, CCK-8). The “IC50 times lower than that of β-elemene” value is listed as “more than 5 times” in assay [1] and “more than 10 times” in assay [3]. Further, the “intracellular Rhodamine Red fluorescence, with UV irradiation” value in the assay with Huh1 liver cancer cells (20 μM, with UV irradiation (365 nm, 15 min)) is “strong intracellular Rhodamine Red fluorescence”. Besides, the “intracellular Rhodamine Red fluorescence, without UV irradiation” value with Huh1 liver cancer cells (20 μM, without UV irradiation) is listed as “no intracellular Rhodamine Red fluorescence”. In addition, the “binding of the probe to the target” value in the assay on Huh1 liver cancer cells (conclusion from competition imaging) is “non-covalent”.

Turning to `C#CCCC(=O)NCCOCCOCCC(=O)N[C@H](CCC1(C)N=N1)C(=O)NCCOCCOCCN1CCN(CC(=C)[C@@H]2CC[C@@](C)(C=C)[C@H](C(=C)C)C2)CC1` [Compound 3], the IC50 in assay [1] (A549 cells, 48 h, CCK-8) came to 44.6 ± 7.68 µM; in assay [2] (U87-MG cells, CCK-8) it was 19.3 ± 3.3 µM; in assay [3] (HuH-1, Huh1 cells, 48 h, CCK-8), 22.8 ± 3.07 µM. The “IC50 times lower than that of β-elemene” value in assay [2] and in assay [3] was “more than 10 times” throughout.

As for `C#CCCC(=O)NCCOCCOCCC(=O)N[C@H](CCC1(C)N=N1)C(=O)N1CC2CN(CC(=C)[C@@H]3CC[C@@](C)(C=C)[C@H](C(=C)C)C3)CC2C1` (stereo partly drawn) [Compound 4], the IC50 in assay [1] (A549 cells, 48 h, CCK-8) was 48.4 ± 1.7 µM; in assay [2] (U87-MG cells, CCK-8) it was 47.2 ± 2.21 µM; in assay [3] (HuH-1, Huh1 cells, 48 h, CCK-8), 54.5 ± 3.26 µM.

With `C#CCCC(=O)NCCOCCOCCC(=O)N[C@@H](CCC1(C)N=N1)C(=O)NCCOCCOCCN1CC2CN(CC(=C)[C@@H]3CC[C@@](C)(C=C)[C@H](C(=C)C)C3)CC2C1` (stereo partly drawn) [Compound 5], the IC50 in assay [1] (A549, 48 h) is 28.4 ± 3.36 µM; in assay [2], 14.1 ± 1.72 µM; in assay [3] (HuH-1, 48 h) it was 17.1 ± 0.8 µM. Further, the “IC50 times lower than that of β-elemene” value was “more than 5 times” in assay [1], “more than 10 times” in assay [2] and “more than 10 times” in assay [3].

In the case of `C=C[C@]1(C)CC[C@@H](C(=C)CN2CC3CN(C)CC3C2)C[C@H]1C(=C)C` (stereo partly drawn) [Compound 7], the half-inhibitory concentration (IC50) was determined as 43.4 ± 2.14 µM in assay [1] (A549, 48 h); 23.3 ± 0.84 µM in assay [2]; 24.3 ± 4.02 µM in assay [3] (HuH-1, 48 h). For the same compound, the “IC50 times lower than that of β-elemene” value in assay [3] is listed as “more than 10 times”.

For the compound `C=C[C@]1(C)CC[C@@H](C(=C)C)C[C@H]1C(=C)C` [β-elemene, reference compound], the IC50 in assay [1] (A549 cells, 48 h, CCK-8) was 213 ± 5.29 µM; in assay [2] (U87-MG cells, CCK-8), 218 ± 9.58 µM; in assay [3] (HuH-1, Huh1 cells, 48 h, CCK-8), 306 ± 31.7 µM. Besides, the “intensity of intracellular Rhodamine Red fluorescence of Compound 2 in presence of competitor” value in the assay with Huh1 liver cancer cells (competitor β-elemene (50 μM) with Compound 2 (20 μM), UV irradiation) is listed as “greatly weakened”. Moreover, in the assay on Huh1 liver cancer cells (versus Compound 2, conclusion from competition imaging), the competitive binding entry is “can competitively bind to Compound 2”.
